This note sets out measurements from patent US7927634B2, “Compositions and methods for treating angiogenesis-related diseases, wounds and cosmetic use of components of Angelica sinensis, and methods of preparation thereof” (Sunny Biodiscovery, Inc., priority 2004, dated 2011).

One assay relates to bovine endothelial cells. The experiment in a line: Tridimensional tube formation assay, in vitro. It is filed as cell-based. Conditions: bFGF positive control, 15 ng/ml or 10 ng/ml; 2-5 weeks; FIG. 3C. The procedure: FIG. 3. Tridimensional tube formation assay, in vitro. A: Capillary endothelial cells form a monolayer in the absence of a remodeling stimulus. B: SBD.4 (5 μg/ml, purified by HPLC) induces remodeling of the monolayer that culminates in a tridimensional network of capillary structures. […]
In this model, capillary-like structures are induced by plating bovine endothelial cells (about 8000 cells per well) in a 96 well tissue culture-treated plate (Costar) in DMEM supplemented with 5% calf serum (Hyclone, Logan, Utah), with or without an endothelial cell stimulatory growth factor. […] Cells grown without such factor form a monolayer (FIG. 3A).

Assay [1] deals with full thickness excisional wounds in genetically diabetic mice. Description: Wound closure in genetically diabetic mice. In kind it is in vivo, mouse. Conditions: for Becaplermin (% closure): median, becaplermin 5 ug/wound in CMC gel, n = 6; for Stimulation by becaplermin relative to Control (control = 1): ratio of median closure, becaplermin 5 ug/wound. The text has this: We have chosen to use the genetically diabetic mice (13 week old female BKS Cg-m +/+ Lepr(db), stock # 642, Jackson Labs) because it is an optimal model reflecting the impaired wound healing in a segment of the population particularly vulnerable to chronic wounds—the diabetic patients. This genetically diabetic mouse model is well established as documented by over 50 publications (for example see Tsuboi et al., 1992). Many companies have also used it as a standard pre-clinical model, including Johnson & Johnson, which included it in the pre-clinical data package submitted to FDA as part of their IND application for becaplermin. […]
Twelve mice were divided in 2 groups and 8 mm (diameter) full thickness excisional wounds were performed under anesthesia on each side of the animal with a punch biopsy tool and covered by sterile gauze (occlusive dressings were not used as they considerably delay wound healing, according to the experience of the Principal Inventor and to the published reports (Lasa et al., 1993). The number of animals per group was based on the previous publications with this model; Jacobi et al., 2002). In Group 1 (the experimental treatment group), one wound on each animal was treated by 50 ul of “high” concentration of SBD.4 (10 mg per wound) and the other one by 50 ul of “low” concentration of SBD.4 (2 mg per wound). In Group 2 (negative control), both wounds were treated by PBS (phosphate buffered saline). Treatments were applied on the first day and every second day thereafter. Wound surface were measured every second day. Wound closure was determined by the following formula: percent closure={(area on day 0−open area)/area on day 0}×100. Wounds were considered closed if moist granulation tissue was no longer apparent, and the wound appeared covered with new epithelium.
Twelve mice were divided in two groups and two wounds per mouse were effectuated as in Example 5. In order to exclude the possibility of mouse-to-mouse variability in wound healing, in this experiment every mouse was treated by the test sample on one wound and by PBS (negative control) on another wound. Thus, one group of 6 mice was treated with 50 ul of SBD.4 (2 mg/wound) on one wound, and by 50 ul of PBS on the other wound, while the second group of 6 mice was treated with becaplermin (positive control; 5 ug in 50 ul CMC—carboxymethylcellulose—gel) on one and PBS on another wound. The concentration of becaplermin was based on the dose used by Johnson & Johnson in their pre-clinical studies (2) and on published studies with PDGF-B, in the db/db model (Greenhalgh et al., 1990).
Treatments were applied on the first day and every second day thereafter. Wound surface were measured every second day. Wound closure for each wound was determined by the formula: percent closure={(area on day 0−open area)/area on day 0}×100. Wounds were considered closed if moist granulation tissue was no longer apparent, and the wound appeared covered with new epithelium. The dynamics of wound closure for the 2 groups is plotted on FIG. 6 (means) and Table II (medians).

In assay [2] the test system is full thickness wounds in human skin graft on SCID mice. Description: Wound closure in human skin/SCID mouse chimera model. As to conditions: closed/total animals, ointment every two days, SBD.4 (HPLC-purified) in 2% CMC, becaplermin as Regranex. It is filed as in vivo, human skin grafted on SCID mice. The text has this:
Human skin graft in severe combined immunodeficient (SCID) mice is a powerful model for evaluating the effect of wound-healing drug-candidates on full-thickness wounds (Juhasz et al., 1993). The wound model in human skin/SCID chimera features normal migration of neutrophils and macrophages to the wound bed, as well as normal expression of growth factors associated with wound-healing, and therefore provides a good approximation of human dermal wound-healing process (Matsumoto et al., 1997). The disadvantage of this model is that it is delicate to handle and time-consuming. The donor skin must be immediately placed on ice and taken to the lab, where a 10-hour grafting procedure follows. We used surgical waste skin obtained under informed consent from a patient undergoing abdominoplasty.
Skin was defatted (if it is not well defatted, the remaining adipose tissue easily undergoes necrosis, which interferes with graft taking. But on the other side, removing the underlying fat tissue too slowly or too zealously can also damage the skin and compromise the graft), and grafted (2.5×2.5 cm) on 15 SCID mice (Charles River Labs), using 10-12 stitches per graft. Here, the challenge is to suture the thick human skin with the much thinner rodent tissue.
After 6 weeks, when the graft anastomosed with the murine skin 8 mm (diameter) full thickness wounds were excised in the human skin. Mice received treatment (ointment every two days) of either becaplermin (Regranex, positive control), 2% carboxymethylcellulose (CMC, negative control) or SBD.4 in 2% CMC on the day of wounding and every second day thereafter. Initial wound closure (defined by the coverage of the base of the wound with bridging granular tissue and new epithelium) was assessed every 3 days.

“bFGF: basic fibroblast growth factor, potent angiogenesis stimulator used as positive control”: in the assay with bovine endothelial cells, the “induction of capillary-like structures (remodeling response)” value is given as “form capillary-like structures”.

“Becaplermin: becaplermin (Regranex, Johnson & Johnson), positive control for wound healing”: the “wound closure versus PBS” value in assay [1] (Example 6, becaplermin 5 ug in 50 ul CMC gel per wound, FIG. 6 means, one-way ANOVA) was “not meaningfully different from the control”. Besides, the “Becaplermin (% closure)” value is 0.0% in assay [1] (Example 6, day 1); 1.7% in assay [1] (Example 6, day 3); 11.9% in assay [1] (Example 6, day 5); 41.2% in assay [1] (Example 6, day 7); 65.8% in assay [1] (Example 6, day 9); 86.7% in assay [1] (Example 6, day 11). In addition, the “Stimulation by becaplermin relative to Control (control = 1)” value stood at 1.1 in assay [1] (day 3); 0.4 in assay [1] (day 5); 1.1 in assay [1] (day 7); 1.3 in assay [1] (day 9); 1.3 in assay [1] (day 11). Further, the “# animals showing initial wound closure” value is on record as 0/5 in assay [2] (Day 3); 1/5 in assay [2] (Day 6); 2/4 in assay [2] (Day 9); 4/4 in assay [2] (Day 12); 4/4 in assay [2] (Day 16).
